# Laboratory results as given in patent US11780826B2 (Amgen Inc., priority 2017, dated 2023).
# Tested on: Bovine cardiac myofibrils
# Experiment: In vitro model of dose-dependent myofibril ATPase modulation (AC1.4, pyruvate kinase/lactate dehydrogenase-coupled ATPase assay at pCa25)
# Type: biochemical
# Details: concentration at which ATPase activity was 1.4-fold higher than the bottom of the dose curve, mean of a minimum of two independent tests
# How it was run: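 We measure calcium-buffered ATPase activity of detergent-skinned bovine cardiac myofibrils at pH 6.80 and 22° C with 1 mM ATP, using a PK/LDH-coupled NADH readout at 340 nm. Values come from four-parameter dose-response fits, averaged over at least two independent runs.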
row,SMILES,AC1.4 [µM]
1,"CS(=O)(=O)c1cccc(C(=O)N2C[C@H]3C[C@H]3[C@@H]2C(=O)N[C@@H](c2ccc(C(F)(F)F)cc2F)C2CC2)c1 [Example 407, (1R,2R,5S)-N-((R)-cyclopropyl(2-fluoro-4-(trifluoromethyl)phenyl)methyl)-3-(3-(methylsulfonyl)benzoyl)-3-azabicyclo[3.1.0]hexane-2-carboxamide]",1.427
2,"CC1CCN1S(=O)(=O)N1CCC[C@H](C(=O)N2CCC[C@@H]2C(=O)NCc2ccc(C(F)(F)F)cc2)C1 (stereo partly drawn) [Example 769, (2R)-1-((3S)-1-((2-methylazetidin-1-yl)sulfonyl)piperidine-3-carbonyl)-N-(4-(trifluoromethyl)benzyl)pyrrolidine-2-carboxamide]",8.078
3,"O=C(NCc1ccc(C(F)(F)F)cc1)[C@H]1CCCN1C(=O)[C@H]1CCCN(S(=O)(=O)N2CCC2c2ccccc2F)C1 (stereo partly drawn) [Example 302, (2R)-1-((3S)-1-((2-(2-fluorophenyl)azetidin-1-yl)sulfonyl)piperidine-3-carbonyl)-N-(4-(trifluoromethyl)benzyl)pyrrolidine-2-carboxamide]",0.7944
4,"O=C(N[C@@H](c1cc(F)c(Cl)cc1F)C1COC1)[C@H]1C[C@H]2C[C@H]2N1C(=O)c1cccc(C(F)(F)F)n1 [Example 529, (1R,3R,5R)-N-((R)-(4-chloro-2,5-difluorophenyl)(3-oxetanyl)methyl)-2-((6-(trifluoromethyl)-2-pyridinyl)carbonyl)-2-azabicyclo[3.1.0]hexane-3-carboxamide]",2.4895
5,"N#CC1CN(S(=O)(=O)N2CC[C@H](C(=O)N3CCC[C@@H]3C(=O)NCc3ccc(C(F)(F)F)cc3F)C2)C1 [Example 470, 1-(((3S)-1-((3-cyano-1-azetidinyl)sulfonyl)-3-pyrrolidinyl)carbonyl)-N-(2-fluoro-4-(trifluoromethyl)benzyl)-D-prolinamide]",1.9915
6,"CC1(O)CN(S(=O)(=O)N2CCC[C@H](C(=O)N3CCC[C@@H]3C(=O)NCc3ccc(Cl)c(F)c3)C2)C1 [Example 663, N-(4-chloro-3-fluorobenzyl)-1-(((3S)-1-((3-hydroxy-3-methyl-1-azetidinyl)sulfonyl)-3-piperidinyl)carbonyl)-D-prolinamide]",4.6285
7,"N#CC1CN(S(=O)(=O)N2CCC[C@H](C(=O)N3CCC[C@@H]3C(=O)NC3CC(CO)c4ccccc43)C2)C1 (stereo partly drawn) [Example 276, (2R)-1-((S)-1-((3-cyanoazetidin-1-yl)sulfonyl)piperidine-3-carbonyl)-N-(3-(hydroxymethyl)-2,3-dihydro-1H-inden-1-yl)pyrrolidine-2-carboxamide]",0.7014
8,"CS(=O)(=O)c1cccc(C(=O)N2C[C@@H](F)C[C@@H]2C(=O)N[C@@H](c2cc(F)c(C(F)(F)F)cc2F)C2CC2)c1 [Example 173, (4S)-N-((R)-cyclopropyl(2,5-difluoro-4-(trifluoromethyl)phenyl)methyl)-4-fluoro-1-(3-(methylsulfonyl)benzoyl)-D-prolinamide]",0.3001
9,"CN(C)S(=O)(=O)c1cccc(C(=O)N2CCC[C@@H]2C(=O)NCc2ccc(C(F)(F)F)cc2F)c1 [Example 459, 1-(3-(dimethylsulfamoyl)benzoyl)-N-(2-fluoro-4-(trifluoromethyl)benzyl)-D-prolinamide]",1.8995
10,"CC1(c2cccc(C(=O)N3CCC[C@@H]3C(=O)N[C@@H](c3ccc(C(F)(F)F)cc3F)C3CC3)c2)COC1 [Example 691, N-((R)-cyclopropyl(2-fluoro-4-(trifluoromethyl)phenyl)methyl)-1-(3-(3-methyl-3-oxetanyl)benzoyl)-D-prolinamide]",5.3575
11,"Cc1cccc(CNC(=O)[C@H]2CCCN2C(=O)[C@H]2CCCN(S(=O)(=O)N3CC(C#N)C3)C2)c1F [Example 606, 1-(((3S)-1-((3-cyano-1-azetidinyl)sulfonyl)-3-piperidinyl)carbonyl)-N-(2-fluoro-3-methylbenzyl)-D-prolinamide]",3.696
12,"O=C(N[C@@H](c1ccc(C(F)(F)F)cc1F)C1COC1)[C@H]1C[C@H]2C[C@H]2N1C(=O)c1ccnc(C(F)F)c1 [Example 480, (1R,3R,5R)-2-((2-(difluoromethyl)-4-pyridinyl)carbonyl)-N-((R)-(2-fluoro-4-(trifluoromethyl)phenyl)(3-oxetanyl)methyl)-2-azabicyclo[3.1.0]hexane-3-carboxamide]",2.1525
13,"CCS(=O)(=O)c1cccc(C(=O)N2[C@@H](C(=O)N[C@H](C)c3cc(F)c(Cl)cc3F)C[C@H]3C[C@H]32)c1 [Example 513, (1R,3R,5R)-N-((1R)-1-(4-chloro-2,5-difluorophenyl)ethyl)-2-(3-(ethylsulfonyl)benzoyl)-2-azabicyclo[3.1.0]hexane-3-carboxamide]",2.3655
14,"N#CC1CN(S(=O)(=O)N2CCC[C@H](C(=O)N3CCC[C@@H]3C(=O)NCc3cccc(OC(F)F)c3)C2)C1 [Example 781, 1-(((3S)-1-((3-cyano-1-azetidinyl)sulfonyl)-3-piperidinyl)carbonyl)-N-(3-(difluoromethoxy)benzyl)-D-prolinamide]",8.59
15,"C[C@@H](NC(=O)[C@H]1CCCN1C(=O)[C@H]1CCCN(S(=O)(=O)N2CC(C#N)C2)C1)c1cc(F)c(Cl)cc1F [Example 48, N-((1R)-1-(4-chloro-2,5-difluorophenyl)ethyl)-1-(((3S)-1-((3-cyano-1-azetidinyl)sulfonyl)-3-piperidinyl)carbonyl)-D-prolinamide]",0.0531
16,"O=C(N[C@@H](c1cc(F)c(Cl)cc1F)C1CC1)[C@H]1C[C@H]2C[C@H]2N1C(=O)c1cncc(C(F)(F)F)c1 [Example 374, (1R,3R,5R)-N-((R)-(4-chloro-2,5-difluorophenyl)(cyclopropyl)methyl)-2-((5-(trifluoromethyl)-3-pyridinyl)carbonyl)-2-azabicyclo[3.1.0]hexane-3-carboxamide]",1.2265
17,"O=C(N[C@@H](c1ccc(C(F)(F)F)cc1F)C1CC1)[C@H]1C[C@H](F)CN1C(=O)c1cccc(C2(F)COC2)c1 [Example 599, (4S)-N-((R)-cyclopropyl(2-fluoro-4-(trifluoromethyl)phenyl)methyl)-4-fluoro-1-(3-(3-fluoro-3-oxetanyl)benzoyl)-D-prolinamide]",3.5615
18,"N#CC1CN(S(=O)(=O)N2CCCC(F)(C(=O)N3CCC[C@@H]3C(=O)NCc3ccc(C(F)(F)F)cc3)C2)C1 (stereo partly drawn) [Example 514, (2R)-1-(1-((3-cyanoazetidin-1-yl)sulfonyl)-3-fluoropiperidine-3-carbonyl)-N-(4-(trifluoromethyl)benzyl)pyrrolidine-2-carboxamide]",2.433
19,"C[C@H](NC(=O)[C@H]1CCCN1C(=O)[C@H]1CCCN(S(=O)(=O)N2CC(C#N)C2)C1)c1ccc(Cl)cc1 [Example 803, N-((1S)-1-(4-chlorophenyl)ethyl)-1-(((3S)-1-((3-cyano-1-azetidinyl)sulfonyl)-3-piperidinyl)carbonyl)-D-prolinamide]",9.622
20,"O=C(N[C@@H](c1cc(F)c(Cl)cc1F)C1CC1)[C@H]1C[C@H]2C[C@H]2N1C(=O)c1cc(C(F)(F)F)ccn1 [Example 266, (1R,3R,5R)-N-((R)-(4-chloro-2,5-difluorophenyl)(cyclopropyl)methyl)-2-((4-(trifluoromethyl)-2-pyridinyl)carbonyl)-2-azabicyclo[3.1.0]hexane-3-carboxamide]",0.6674
21,"N#CC1CN(S(=O)(=O)N2CCC[C@H](C(=O)N3CCC[C@@H]3C(=O)NCC3CCC(C(F)(F)F)CC3)C2)C1 (stereo partly drawn) [Example 590, 1-(((3S)-1-((3-cyano-1-azetidinyl)sulfonyl)-3-piperidinyl)carbonyl)-N-((cis-4-(trifluoromethyl)cyclohexyl)methyl)-D-prolinamide,1-(((3S)-1-((3-cyano-1-azetidinyl)sulfonyl)-3-piperidinyl)carbonyl)-N-((4-(trifluoromethyl)cyclohexyl)methyl)-D-prolinamide]",3.4675
22,"CS(=O)(=O)c1cc(F)cc(C(=O)N2[C@@H](C(=O)N[C@@H](c3cc(F)c(Cl)cc3F)C3COC3)C[C@H]3C[C@H]32)c1 [Example 83, (1R,3R,5R)-N-((R)-(4-chloro-2,5-difluorophenyl)(3-oxetanyl)methyl)-2-(3-fluoro-5-(methylsulfonyl)benzoyl)-2-azabicyclo[3.1.0]hexane-3-carboxamide]",0.1146
23,"O=C(NCc1ccc(C(F)(F)F)cc1F)[C@H]1CCCN1C(=O)[C@H]1CCCN(S(=O)(=O)N2CC(O)C2)C1 [Example 610, N-(2-fluoro-4-(trifluoromethyl)benzyl)-1-(((3S)-1-((3-hydroxy-1-azetidinyl)sulfonyl)-3-piperidinyl)carbonyl)-D-prolinamide]",3.7735
24,"N#CC1CN(S(=O)(=O)c2cccc(C(=O)N3CCC[C@@H]3C(=O)N[C@@H](CO)c3ccc(C(F)(F)F)cc3)c2)C1 [Example 188, 1-(3-((3-cyano-1-azetidinyl)sulfonyl)benzoyl)-N-((1R)-2-hydroxy-1-(4-(trifluoromethyl)phenyl)ethyl)-D-prolinamide]",0.3496
25,"NS(=O)(=O)c1cccc(C(=O)N2C[C@@H](F)C[C@@H]2C(=O)N[C@@H](c2cc(F)c(Cl)cc2F)C2CC2)c1 [Example 280, (4S)-N-((R)-(4-chloro-2,5-difluorophenyl)(cyclopropyl)methyl)-4-fluoro-1-(3-sulfamoylbenzoyl)-D-prolinamide]",0.713
26,"N#CC1CN(S(=O)(=O)N2CCC[C@H](C(=O)N3CCC[C@@H]3C(=O)NCc3ccc(Cl)cc3)C2)C1 [Example 164, N-(4-chlorobenzyl)-1-(((3S)-1-((3-cyano-1-azetidinyl)sulfonyl)-3-piperidinyl)carbonyl)-D-prolinamide]",0.2785
27,"CS(=O)(=O)c1cccc(C(=O)N2C[C@@H](F)C[C@@H]2C(=O)N[C@@H](c2ccc(Cl)cc2F)C2COC2)c1 [Example 352, (4S)-N-((R)-(4-chloro-2-fluorophenyl)(3-oxetanyl)methyl)-4-fluoro-1-(3-(methylsulfonyl)benzoyl)-D-prolinamide]",0.9758
